Our source for the melting point values is a melting point compilation (Tetko et al.; mined from patent text by program, amines drawn as free bases though some values may be those of a salt).

A word on the melting point: it is the temperature of the solid-liquid transition. `CCCCCCCCCCCc1nc(NC(=O)Nc2c(C(C)C)cccc2C(C)C)n[nH]1` had a melting point of 168 to 170 °C.

Compound `COC(=O)c1cccc(-c2ccncn2)c1` came in with a melting point of 69 to 71 °C.

In turn, `Nc1cccnc1-c1ccc2[nH]nc(Nc3nccs3)c2c1` registered a melting point of 282 to 283 °C.

For the compound `Cc1ccc(OC(=O)N=C2NC(c3ccc(C)cc3)=NC2(C(F)(F)F)C(F)(F)F)cc1`, the melting point fell in the range of 161 to 163 °C.

Consider `CCN(CC)S(=O)(=O)c1cc(Cl)c(Cl)c(Cl)c1SCCl`, for which the melting point was in the range of 82 to 83 °C.

On to `O=C(O)C1=CC(CF)(CF)Oc2ccc(C(F)(F)F)cc21`, for which the melting point fell in the range of 159 to 161 °C.

Compound `Cn1ncnc1COc1nn2c(-c3ccccc3F)nncc2c1-c1cccc(N)c1` came in with a melting point of 196 to 200 °C.

Turning to `Cc1nc2c(o1)CCc1ccccc1C2=Cc1cccc(NS(C)(=O)=O)c1`, the melting point worked out at 185 °C.

The compound `CCCCCCCCCCCCCCCCOCC(CO)Oc1cc(-c2ccccc2)on1` (stereo not given) returned a melting point of 45.5 to 46.5 °C.

As for `C[C@H]1CN(c2c(F)c(N)c3c(=O)c(C(=O)O)cn(C4CC4)c3c2F)C[C@H]1CN` (relative stereo), the melting point is 221 to 223 °C.

In turn, `CCc1cccc(C)c1NC(=S)NC(C)(C)C` yielded a melting point of 94 to 96 °C.

`NNc1ccc(-c2nnn(Cc3ccccc3)n2)cc1` had a melting point of 182 to 185 °C.

Compound `COc1cc(C)cc(S(=O)(=O)c2cccc(N)c2C#N)c1` showed a melting point of 166 to 168 °C.

As to `CSc1ccc(C(=CN(C)C)C(C)=O)cc1`, the melting point was 89 to 91 °C.

`Cn1cc(C2=C(c3cn4c5c(cccc35)CCC4CCO)C(=O)NC2=O)c2ccccc21` (stereo not given) displayed a melting point of 214 to 215 °C.

In the case of `CCCCCCCCCCCCCCCCCCCCCCSCCC(=O)NN`, the melting point worked out at 106 °C.

For the compound `CCCCNc1ncc(C(=O)c2ccc(N)c([N+](=O)[O-])c2)s1`, the melting point was in the range of 198 to 203 °C.

As for `CC(C)NCC(O)COc1ccc2c(c1)CCN(C=O)C2` (stereo not given), the melting point fell in the range of 56.6 to 58 °C.

Compound `CCCCc1ncc(/C=C(\Cc2cccs2)C(N)=O)n1Cc1ccccc1[N+](=O)[O-]` had a melting point of 183 to 185 °C.

`CCN(CC)C(=O)c1cc(-c2ccc(OC)cc2)c2ccccc2c1OC` registered a melting point of 129 to 130 °C.

`O=C(O)COCCOc1c(-c2cccc(C(F)(F)F)c2)cc(C(=O)NCCCCCCc2ccccc2)cc1-c1cccc(C(F)(F)F)c1` registered a melting point of 74.7 to 75.9 °C.

In the case of `CCCCc1ncc(CC(NC(=O)CC)C(=O)O)n1Cc1ccccc1Cl` (stereo not given), the melting point lay in the range of 203 to 205 °C.

Regarding `COC(=O)c1oc(C)nc1-c1ccc2c(c1)CCCC2`, the melting point lay in the range of 96 to 97 °C.

In the case of `COC(=O)c1cc(N)c(Oc2cc(C)cc(C)c2)c(S(N)(=O)=O)c1`, the melting point was 195 to 196 °C.

Compound `Cc1cnc2c(NC(=O)c3c(Cl)cccc3Cl)cccc2c1N1CCNC1=O` yielded a melting point of more than 250 °C.

On to `CN(C)CCOC1=C(c2ccccc2)CN(Cc2ccco2)C1=O`, for which the melting point fell in the range of 145 to 148 °C.

As for `Cc1cn(-c2ccc(N)cc2)cn1`, the melting point lay in the range of 122 to 125 °C.

With `CN(N(C)S(C)(=O)=O)S(C)(=O)=O`, the melting point was 168 to 169 °C.

In turn, `CCOC(=O)C(CCC#N)(C(=O)OCC)c1ncc(Br)cc1[N+](=O)[O-]` had a melting point of 58 to 62 °C.

`O=C(Nc1ccc(N2CCOCC2=O)cc1)[C@H]1CCCN1C(=O)c1ccc(Cl)s1` showed a melting point of 195 °C.

Turning to `COC(=O)c1nc(-c2ccccc2)ccc1Oc1nc(OC)cc(OC)n1`, the melting point is 92 to 94 °C.

`COc1ccc2c(c1)C13CCN(C)C(C2)C1(OC)CCC(=O)C3` (stereo not given) registered a melting point of 152 to 156 °C.

`CN1CCN(c2cc(NC(=O)c3ccc(-c4ccncc4)cc3)ccc2Cl)CC1` gave a melting point of 218 to 219 °C.

In turn, `CC(=O)c1ccc(-c2ccc(F)cc2F)cc1` returned a melting point of 82.5 to 83.5 °C.

For the compound `CC(=O)c1cccn1N1C(=O)c2ccccc2C1=O`, the melting point was in the range of 204 to 205 °C.

In turn, `CC(C)c1ccc2nc(C(F)(F)F)c(C(=O)Nc3nccs3)c(O)c2c1` returned a melting point of 262 °C.

In turn, `CC[C@@H](C)[C@H](N)C(=O)N1CC(F)(F)C(F)(F)C1` displayed a melting point of more than 250 °C.

For the compound `CC(C)C(C)CCC(C)C1CC(=O)C2=C3C(=O)CC4CC(OC(=O)c5ccccc5)CCC4(C)C3CCC21C` (stereo not given), the melting point lay in the range of 176 to 177 °C.

Regarding `O=C(NC1CCC(CCN2CCC(c3cccc4c3CCO4)CC2)CC1)C(O)C(F)(F)F` (racemic), the melting point turned out to be 179 °C.

For the compound `O=C1CCCN1C(=O)Oc1ccc([N+](=O)[O-])cc1`, the melting point was 122 to 123 °C.

The compound `C=CCNC(=S)NNCC1CC2c3cccc4[nH]cc(c34)CC2N(C)C1` (stereo not given) returned a melting point of 207 to 208 °C.

In turn, `CN(C)C=C(C#N)C=O` showed a melting point of 140 to 141 °C.

For the compound `O=C(O)Cc1cccc2c(C3CCCC3)nccc12`, the melting point was determined as 172 °C.

Turning to `CC(C)C[C@H](NC(=O)N1CCCCCC1)C(=O)OCc1ccccc1`, the melting point was in the range of 79 to 82 °C.

`Cc1ccc(N2CCN(CCCCl)CC2)cc1` registered a melting point of 34 to 36 °C.

The compound `CCOC(=O)c1cc2c(nc1N)CCN(Cc1ccccc1)C2` yielded a melting point of 141 to 143 °C.

As to `O=c1oc(-c2cccc(Cl)c2)cc(O)c1SCCc1ccccc1`, the melting point is 125 to 127 °C.

The compound `Cc1c(C(N)=O)c2ccccc2n2c(N3CCCC3)nc(-c3noc(C4CC4)n3)c12` returned a melting point of 206 to 209 °C.

Turning to `Cc1ccc(CCCCc2ccc(C(=O)C[C@@H](C)CC(=O)O)s2)cc1`, the melting point was determined as 94 °C.

In turn, `CS(=O)(=O)c1ccc(Nc2ccn(-c3ccccc3)n2)cc1` returned a melting point of 185 to 187 °C.

The compound `COc1cc(COc2ccccc2C=O)cc(OC)c1` displayed a melting point of 68 to 69 °C.

The compound `CC(C)(C)C(O)(Cn1cncn1)C(Br)=C(Cl)Br` (stereo not given) returned a melting point of 78 to 81 °C.

Turning to `Cc1cc(C(O)(C=Cc2ccc(Cl)cc2)C(F)(F)F)ccc1NC(=O)c1cccc(I)c1C(=O)NC(C)C` (stereo not given), the melting point was in the range of 65 to 75 °C.

Compound `CCCCCCOCCOc1ccc(-c2ccc3c(c2)C=C(C(=O)Nc2ccc(CN(C)C4CCOCC4)cc2)CCS3(=O)=O)cc1` displayed a melting point of 180 to 182 °C.

For `Cc1cc(=O)c(C(=O)NS(C)(=O)=O)nn1-c1ccc(Cl)cc1`, the melting point lay within 225 to 227 °C.

Take `COCC1COc2cc3ncnc(Nc4cccc(Br)c4)c3cc2O1` (stereo not given): the melting point lay within 268 to 274 °C.

Turning to `Nc1noc(-c2cc3c(Oc4ccc(Cl)cc4)cncc3s2)n1`, the melting point lay in the range of 217 to 219 °C.

In the case of `O=C(O)COc1ccc(C(=O)C=Cc2ccccc2F)c(Cl)c1Cl`, the melting point fell in the range of 191 to 194 °C.

Take `CCCn1c(=O)c2[nH]c(/C=C/c3ccc(OC)c(C)c3OC)nc2n(CCC)c1=O`: the melting point lay in the range of 255 to 256 °C.

On to `CN(C)C(=O)CC(N)=S`, for which the melting point fell in the range of 111 to 114 °C.

`Cc1ccc(-c2cc(Cl)c3ccc(C)cc3n2)cc1` displayed a melting point of 110 to 111 °C.

In turn, `CC1(C)CCn2c(nc(-c3ccncn3)cc2=O)N1` came in with a melting point of 265 to 267 °C.

For `Cc1nc2c(O)cccn2c1C=O`, the melting point lay in the range of 251 to 252 °C.

The compound `O=C1NCCSc2sccc21` came in with a melting point of 157 to 158 °C.

`CC(C)OC(=O)c1nnc2n1-c1ccc(Cl)cc1C(c1ccccc1Cl)=NC2` had a melting point of 229 to 230 °C.
